pIC50: −log10 of the molar value. Where two headings read alike, the source gives them in different places.
Tests used:
[1] = biological target: GSK3α (GST-full length GSK3α) (Homo sapiens (Human), UniProt P49840); test: GSK3α TR-FRET kinase assay; format: biochemical; details: IC50
Protocol: TR-FRET Assay: The assay was performed in a white, 384 well, low volume, flat bottom plate (Grenier). After a 30 minute preincubation in assay buffer with the indicated concentration of compound, the kinase activity was initiated by the addition of the substrates. 1 nM GSK3α (GST-full length GSK3α [SignalChem G08-10G]) or 1 nM GSK3b (GST-full length GSK3b: [SignalChem G08-9G]) were then incubated at ambient temperature for 100 minutes in 10 μL of 50 mM Tris, pH 7.5, 20 mM MgCl2, 0.05 mM DTT, 100 μg/mL BSA and 1% DMSO, with 200 nM biotinylated peptide substrate (biotinylated and S645 phosphorylated glycogen synthase 631-650) and either 4 μM ATP (GSK3α, Table 16) or 2 μM ATP (GSK3b, Table 16) or 1 mM ATP (Table 17). The kinase activity was quenched with 2 μL of 250 mM EDTA. A 10 μL volume of 40 nM Strepavidin-d2, 2 nM Tb^2+-pSer641 antibody in TR-FRET Detection Buffer (Invitrogen) was then added. After 60 min at room temperature the plate was read on Envision plate reader using Ex: 340 nm, Em: 615 nm and […]. The normalized 665/615 Signal ratio versus log compound concentration was analyzed by XLFIT to yield IC50 values.

[2] = biological target: GSK3b (GST-full length GSK3b) (Homo sapiens (Human), UniProt P49841); test: GSK3b TR-FRET kinase assay; format: biochemical; details: IC50
Method in brief: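 Compound was preincubated 30 min with 1 nM GST-GSK3 enzyme. Reaction ran 100 min at ambient temperature in Tris pH 7.5/MgCl2 with 200 nM biotinylated pS645-glycogen synthase 631-650 peptide and ATP (4 μM GSK3α, 2 μM GSK3b, or 1 mM). The EDTA-stopped reaction was read by TR-FRET (Tb-anti-pSer641/streptavidin-d2), and IC50s were fitted.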

[3] = 1 nM GSK3α, 4 μM ATP, 30 minute preincubation, geometric mean, read-out: GSK3-A TR-FRET BIOCHEMICAL (TR-FRET), GMean
[4] = 1 nM GSK3b, 2 μM ATP, 30 minute preincubation, geometric mean, read-out: GSK3-B TR-FRET BIOCHEMICAL (TR-FRET), GMean
[5] = read-out: GSK3-A (TR-FRET 1 mM ATP), GMean, 1 mM ATP, geometric mean
[6] = read-out: GSK3-B (TR-FRET 1 mM ATP), GMean, 1 mM ATP, geometric mean

GSK3b (GST-full length GSK3b), sequence (P49841 whole entry): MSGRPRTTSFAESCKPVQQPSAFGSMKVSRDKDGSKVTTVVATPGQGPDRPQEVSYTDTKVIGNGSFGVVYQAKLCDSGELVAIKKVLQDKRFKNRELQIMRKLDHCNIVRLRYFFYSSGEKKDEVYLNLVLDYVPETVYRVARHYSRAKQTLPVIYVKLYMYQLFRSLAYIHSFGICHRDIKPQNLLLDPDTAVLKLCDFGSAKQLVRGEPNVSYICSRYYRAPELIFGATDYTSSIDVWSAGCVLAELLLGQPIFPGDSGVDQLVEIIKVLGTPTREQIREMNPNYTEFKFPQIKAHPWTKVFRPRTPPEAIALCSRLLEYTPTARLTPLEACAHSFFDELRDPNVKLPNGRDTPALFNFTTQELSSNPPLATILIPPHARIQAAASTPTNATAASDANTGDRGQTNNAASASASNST
GSK3α (GST-full length GSK3α), sequence (P49840 whole entry): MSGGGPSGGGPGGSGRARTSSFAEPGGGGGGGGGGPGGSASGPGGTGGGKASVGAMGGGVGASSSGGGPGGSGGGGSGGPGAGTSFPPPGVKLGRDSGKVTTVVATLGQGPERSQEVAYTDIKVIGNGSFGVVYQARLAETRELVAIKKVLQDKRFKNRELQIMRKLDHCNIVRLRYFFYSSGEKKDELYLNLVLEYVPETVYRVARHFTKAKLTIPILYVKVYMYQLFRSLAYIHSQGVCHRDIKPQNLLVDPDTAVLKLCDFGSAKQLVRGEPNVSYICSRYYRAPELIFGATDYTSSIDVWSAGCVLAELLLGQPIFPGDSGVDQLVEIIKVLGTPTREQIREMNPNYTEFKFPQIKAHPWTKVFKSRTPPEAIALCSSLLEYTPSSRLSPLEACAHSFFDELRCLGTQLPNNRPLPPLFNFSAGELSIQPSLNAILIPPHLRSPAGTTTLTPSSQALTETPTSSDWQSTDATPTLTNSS

| Compound | pIC50 [1, 3] | pIC50 [2, 4] | further results |
| --- | --- | --- | --- |
| CCC1(c2cccc(N3CCOCC3)c2)C2=C(CC(C)(C)CC2=O)Nc2n[nH]cc21 (centres unmarked) [Compound 810363] | 6.00 to 7.00 | 6.00 to 7.00 |  |
| CCC1(c2cccc(Br)c2)C2=C(CC(C)(C)CC2=O)Nc2n[nH]c(C(F)(F)F)c21 (centres unmarked) [Compound 810365] | < 5.78 | < 5.78 |  |
| CCC1(c2cccc(N3CCN(C)CC3)c2)C2=C(CC(C)(C)CC2=O)Nc2n[nH]cc21 (centres unmarked) [Compound 810379] | < 5.78 | < 5.30 |  |
| CCC1(c2cccc(C(F)(F)F)c2)C2=C(CC(C)CC2=O)Nc2n[nH]cc21 (centres unmarked) [Compound 810451] | ≥ 7.00 | ≥ 7.00 |  |
| CCC1(c2cccc(C(F)(F)F)c2)C2=C(CC(C)CC2=O)Nc2n[nH]cc21 (centres unmarked) [Compound 810452] | 6.00 to 7.00 | 5.30 to 6.00 |  |
| CCC1(c2cccc(C(F)(F)F)c2)C2=C(CC(C)CC2=O)Nc2n[nH]cc21 (centres unmarked) [Compound 810453] | < 5.30 | < 5.30 |  |
| CC1(C)CC(=O)C2=C(C1)Nc1n[nH]c(Br)c1C21CCNc2ccccc21 (centres unmarked) [Compound 810460] | 5.30 to 6.00 | < 5.30 |  |
| CCC1(c2cccc(C(F)(F)F)c2)C2=C(CC(C)(C)CC2=O)Nc2n[nH]c(Br)c21 (centres unmarked) [Compound 810464] | 5.30 to 6.00 | 5.30 to 6.00 |  |
| CCC1(c2cccc(C(F)(F)F)c2)C2=C(CC(C)(C)CC2=O)Nc2n[nH]c(Br)c21 (centres unmarked) [Compound 810466] | ≥ 7.00 | ≥ 7.00 | pIC50 [1, 5]: ≥ 7.00; pIC50 [2, 6]: 6.00 to 7.00 |
| CCC1(CC)C2=C(CC(C)(C)CC2=O)Nc2n[nH]cc21 [Compound 810505] |  |  | pIC50 ([1]; 1 nM GSK3α, 4 μM ATP, 30 minute preincubation, Table 16, read-out: GSK3-A TR-FRET BIOCHEMICAL (TR-FRET)): 5.30 to 6.00; pIC50 ([2]; 1 nM GSK3b, 2 μM ATP, 30 minute preincubation, Table 16, read-out: GSK3-B TR-FRET BIOCHEMICAL (TR-FRET)): < 5.30 |
| CCC1(c2cccc(N3CCCC3)c2)C2=C(CC(C)(C)CC2=O)Nc2n[nH]c(C(F)(F)F)c21 (centres unmarked) [Compound 810506] | ≥ 7.00 | ≥ 7.00 |  |
| CCC1(c2cccc(N3CCOCC3)c2)C2=C(CC(C)(C)CC2=O)Nc2n[nH]c(C(F)(F)F)c21 (centres unmarked) [Compound 810507] | ≥ 7.00 | ≥ 7.00 |  |
| CC1(C)CC(=O)C2=C(C1)Nc1n[nH]c(CC(F)(F)F)c1C21CCc2c(F)cccc21 (centres unmarked) [Compound 810590] | 6.00 to 7.00 | 6.00 to 7.00 |  |
| CC1(C)CC(=O)C2=C(C1)Nc1[nH]nc(C3(C(F)(F)F)CC3)c1C21CCc2c(F)cccc21 (centres unmarked) [Compound 810591] | 6.00 to 7.00 | 6.00 to 7.00 |  |
| CCC1(c2ccccc2)C2=C(CS(=O)(=O)CC2=O)Nc2n[nH]cc21 (centres unmarked) [Compound 811512] |  |  | pIC50 ([1]; 1 nM GSK3α, 4 μM ATP, 30 minute preincubation, read-out: GSK3-A TR-FRET BIOCHEMICAL (TR-FRET)): < 5.30; pIC50 ([2]; 1 nM GSK3b, 2 μM ATP, 30 minute preincubation, read-out: GSK3-B TR-FRET BIOCHEMICAL (TR-FRET)): < 5.30 |
| CCC1(c2ccccc2)C2=C(CC3(CCC3)CC2=O)Nc2n[nH]cc21 (centres unmarked) [Compound 811555] | 6.00 to 7.00 | 6.00 to 7.00 |  |
| CCC1(c2cccc(OC)c2)C2=C(CC(C)CC2=O)Nc2n[nH]cc21 (centres unmarked) [Compound 811559] | ≥ 7.00 | 6.00 to 7.00 |  |
| CCC1(c2cccc(-c3cnn(C)c3)c2)C2=C(CC(C)(C)CC2=O)Nc2n[nH]c(C(F)(F)F)c21 (centres unmarked) [Compound 811567] | 6.00 to 7.00 | 6.00 to 7.00 |  |
| CCC1(c2cccc(-c3cnn(C)c3)c2)C2=C(CC(C)CC2=O)Nc2n[nH]cc21 (centres unmarked) [Compound 816752] | ≥ 7.00 | 5.30 to 6.00 |  |
| CCC1(c2ccccc2)C2=C(CC(C)(C(F)(F)F)CC2=O)Nc2n[nH]cc21 (centres unmarked) [Compound 816796] | 6.00 to 7.00 | 5.30 to 6.00 |  |
| CCC1(c2cccc(N3CCCCC3)c2)C2=C(CC(C)(C)CC2=O)Nc2n[nH]c(C(F)(F)F)c21 (centres unmarked) [Compound 816799] | 6.00 to 7.00 | 5.30 to 6.00 |  |
| CC[C@]1(c2cccc(N3CCCCC3)c2)C2=C(CC(C)(C)CC2=O)Nc2n[nH]c(C(F)(F)F)c21 [Compound 816800] | ≥ 7.00 | ≥ 7.00 | pIC50 [1, 5]: ≥ 7.00; pIC50 [2, 6]: ≥ 7.00 |
| CC1(C)CC(=O)C2=C(C1)Nc1n[nH]c(CC(F)(F)F)c1C21CCc2c(F)cccc21 (centres unmarked) [Compound 816837] | 5.30 to 6.00 | 6.00 to 7.00 |  |
| CC1(C)CC(=O)C2=C(C1)Nc1n[nH]c(C3(C(F)(F)F)CC3)c1C21CCc2c(F)cccc21 (centres unmarked) [Compound 816839] | < 5.30 | 5.30 to 6.00 |  |
| CC1(C)CC(=O)C2=C(C1)Nc1n[nH]c(C3(C(F)(F)F)CC3)c1C21CCc2c(F)cccc21 (centres unmarked) [Compound 816840] | 5.30 to 6.00 | 6.00 to 7.00 |  |
| CC[C@]1(c2ccccc2)C2=C(C[C@](C)(COC)CC2=O)Nc2n[nH]cc21 [Compound 816872] | < 5.30 | < 5.30 |  |

More lines, main results first:

| pIC50 [1, 3] | pIC50 [2, 4] | Compound | further results |
| --- | --- | --- | --- |
| ≥ 7.00 | 6.00 to 7.00 | CC1(C)CC(=O)C2=C(C1)Nc1n[nH]cc1[C@]21CCc2c(F)cccc21 [Compound 806633] |  |
| ≥ 7.00 | 6.00 to 7.00 | CCC1(c2cccc(-c3ccncn3)c2)C2=C(CC(C)(C)CC2=O)Nc2n[nH]cc21 (centres unmarked) [Compound 806637] |  |
| 6.00 to 7.00 | 5.30 to 6.00 | CC1(C)CC(=O)C2=C(C1)Nc1n[nH]c(Br)c1[C@@]21CCc2c(F)cccc21 [Compound 806938] |  |
| ≥ 7.00 | ≥ 7.00 | CC1(C)CC(=O)C2=C(C1)Nc1n[nH]c(Br)c1[C@]21CCc2c(F)cccc21 [Compound 806939] |  |
| < 5.30 | < 5.30 | CC[C@]1(c2cccc(N(C)C(C)=O)c2)C2=C(CC(C)(C)CC2=O)Nc2n[nH]cc21 [Compound 810359] |  |
| ≥ 7.00 | 6.00 to 7.00 | CCC1(c2cccc(COC)c2)C2=C(CC(C)(C)CC2=O)Nc2n[nH]cc21 (centres unmarked) [Compound 810360] |  |
| < 5.78 | < 5.30 | CCC1(c2cccc(COC)c2)C2=C(CC(C)(C)CC2=O)Nc2n[nH]cc21 (centres unmarked) [Compound 810362] |  |
| < 5.30 | < 5.30 | CC[C@@]1(c2cccc(N3CCOCC3)c2)C2=C(CC(C)(C)CC2=O)Nc2n[nH]cc21 [Compound 810364] |  |
| < 5.30 | < 5.30 | CC[C@@]1(c2cccc(N3CCCCC3)c2)C2=C(CC(C)(C)CC2=O)Nc2n[nH]cc21 [Compound 810371] |  |
| ≥ 7.00 | ≥ 7.00 | CC[C@@]1(c2cccc(C(C)C)c2)C2=C(CC(C)(C)CC2=O)Nc2n[nH]cc21 [Compound 810373] | pIC50 [1, 5]: 6.00 to 7.00; pIC50 [2, 6]: 5.30 to 6.00 |
| 5.30 to 6.00 | < 5.30 | CC[C@]1(c2cccc(C(C)C)c2)C2=C(CC(C)(C)CC2=O)Nc2n[nH]cc21 [Compound 810375] |  |
| ≥ 7.00 | 6.00 to 7.00 | CC1(C)CC(=O)C2=C(C1)Nc1n[nH]cc1C2(C)c1cc(C(F)(F)F)ccc1F (centres unmarked) [Compound 810376] |  |
| 6.00 to 7.00 | 5.30 to 6.00 | CC1(C)CC(=O)C2=C(C1)Nc1n[nH]cc1C2(C)c1cc(Cl)ccc1F (centres unmarked) [Compound 810377] |  |
| ≥ 7.00 | 6.00 to 7.00 | CCC1(c2cccc(SC)c2)C2=C(CC(C)(C)CC2=O)Nc2n[nH]cc21 (centres unmarked) [Compound 810508] |  |
| < 5.30 | < 5.30 | CC[C@@]1(c2cccc(N3CCCC3)c2)C2=C(CC(C)(C)CC2=O)Nc2n[nH]cc21 [Compound 810509] |  |
| ≥ 7.00 | ≥ 7.00 | Cc1[nH]nc2c1C(C)(c1cccc(C(F)(F)F)c1)C1=C(CC(C)(C)CC1=O)N2 (centres unmarked) [Compound 811556] |  |
| ≥ 7.00 | ≥ 7.00 | CC[C@]1(c2cccc(C3CC3)c2)C2=C(CC(C)(C)CC2=O)Nc2n[nH]cc21 [Compound 811557] | pIC50 [1, 5]: 6.00 to 7.00; pIC50 [2, 6]: 5.30 to 6.00 |
| 5.30 to 6.00 | < 5.30 | CC[C@@]1(c2cccc(OC)c2)C2=C(CC(C)(C)CC2=O)Nc2n[nH]cc21 [Compound 811561] |  |
| 5.30 to 6.00 | < 5.30 | CC[C@@]1(c2cccc(OC(C)C)c2)C2=C(CC(C)(C)CC2=O)Nc2n[nH]cc21 [Compound 811563] |  |
| ≥ 7.00 | 6.00 to 7.00 | CC1(C)CC(=O)C2=C(C1)Nc1n[nH]cc1C21CCc2c(Cl)cccc21 (centres unmarked) [Compound 816795] |  |
| 5.30 to 6.00 | < 5.30 | CC1(C)CC(=O)C2=C(C1)Nc1n[nH]cc1[C@@]2(C)c1cc(C(F)(F)F)ccc1F [Compound 816797] |  |
| ≥ 7.00 | 6.00 to 7.00 | CC1(C)CC(=O)C2=C(C1)Nc1n[nH]cc1[C@]2(C)c1cc(C(F)(F)F)ccc1F [Compound 816798] |  |
